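Tested at 5 concentrations; 48 h exposure; 96-well plates; endpoints linearly interpolated, else capped at highest concentration. GI50: concentration for 50% inhibition of growth.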 Calls of active or inactive are those of the source. No stated cut-off is given here; in the data, active = GI50 up to about 1.1 µM and inactive = higher.
What was measured:
Assay in all cases: NCI anticancer screen, dose series, 48 h
[1] = system: HCT-15
[2] = system: SF-268
[3] = system: SK-OV-3
[4] = system: SN12C
[5] = system: SK-MEL-28
[6] = system: UO-31
[7] = system: OVCAR-5
[8] = system: 786-0
[9] = system: DMS-273
[10] = system: DLD-1
[11] = system: RPMI-8226
[12] = system: EKVX
[13] = system: LXFL 529
[14] = system: SW-620
[15] = system: KM12
[16] = system: XF498
[17] = system: NCI-H522
[18] = system: A549
[19] = system: K562
[20] = system: HL-60
[21] = system: HT-29
[22] = system: SF-539
[23] = system: HOP-92
[24] = system: SNB-19
[25] = system: M14
[26] = system: OVCAR-3
[27] = system: SF-295
[28] = system: NCI-H460
[29] = system: COLO 205
[30] = system: Malme-3M
[31] = system: UACC-257
[32] = system: SK-MEL-5
[33] = system: IGROV-1
[34] = system: HOP-18
[35] = system: M19-MEL
[36] = system: SK-MEL-2
[37] = system: TK-10
[38] = system: NCI-H23
[39] = system: RXF 393
[40] = system: OVCAR-8
[41] = system: MOLT-4
[42] = system: NCI-H226
[43] = system: KM-20L2
[44] = system: ACHN
[45] = system: SR
[46] = system: U-251
[47] = system: HCC 2998
[48] = system: CCRF-CEM
[49] = system: DMS-114
[50] = system: HCT-116
[51] = system: SNB-75
[52] = system: LOX IMVI
[53] = system: UACC-62
[54] = system: HOP-62

Structure (SMILES): COC(=O)C12C3C=CC(O3)C1C1C=CC2O1 (stereo not given)
- GI50 [1]: > 100 µM
- GI50 [2]: > 100 µM (inactive)
- GI50 [3]: > 100 µM (inactive)
- GI50 [4]: > 100 µM (inactive)
- GI50 [5]: > 100 µM (inactive)
- GI50 [6]: > 100 µM (inactive)
- GI50 [7]: > 100 µM (inactive)
- GI50 [8]: > 100 µM (inactive)
- GI50 [9]: > 100 µM (inactive)
- GI50 [10]: > 100 µM (inactive)
- GI50 [11]: > 100 µM (inactive)
- GI50 [12]: > 100 µM (inactive)
- GI50 [13]: > 100 µM (inactive)
- GI50 [14]: > 100 µM (inactive)
- GI50 [15]: > 100 µM (inactive)
- GI50 [16]: > 100 µM (inactive)
- GI50 [17]: > 100 µM (inactive)
- GI50 [18]: > 100 µM (inactive)
- GI50 [19]: > 100 µM (inactive)
- GI50 [20]: > 100 µM (inactive)
- GI50 [21]: > 100 µM (inactive)
- GI50 [22]: > 100 µM (inactive)
- GI50 [23]: > 100 µM (inactive)
- GI50 [24]: > 100 µM (inactive)
- GI50 [25]: > 100 µM (inactive)
- GI50 [26]: > 100 µM (inactive)
- GI50 [27]: > 100 µM (inactive)
- GI50 [28]: > 100 µM (inactive)
- GI50 [29]: > 100 µM (inactive)
- GI50 [30]: > 100 µM (inactive)
- GI50 [31]: > 100 µM (inactive)
- GI50 [32]: > 100 µM (inactive)
- GI50 [33]: > 100 µM (inactive)
- GI50 [34]: > 100 µM (inactive)
- GI50 [35]: > 100 µM (inactive)
- GI50 [36]: > 100 µM (inactive)
- GI50 [37]: > 100 µM (inactive)
- GI50 [38]: > 100 µM (inactive)
- GI50 [39]: > 100 µM (inactive)
- GI50 [40]: > 100 µM (inactive)
- GI50 [41]: > 100 µM (inactive)
- GI50 [42]: > 100 µM (inactive)
- GI50 [43]: > 100 µM (inactive)
- GI50 [44]: > 100 µM (inactive)
- GI50 [45]: > 100 µM (inactive)
- GI50 [46]: > 100 µM (inactive)
- GI50 [47]: > 100 µM (inactive)
- GI50 [48]: > 100 µM (inactive)

Structure (SMILES): COc1nc2c(OC)cccc2c(OC)c1C=O
- GI50 [1]: > 100 µM
- GI50 [3]: > 100 µM (inactive)
- GI50 [4]: > 100 µM (inactive)
- GI50 [5]: > 100 µM (inactive)
- GI50 [6]: > 100 µM (inactive)
- GI50 [8]: > 100 µM (inactive)
- GI50 [9]: > 100 µM (inactive)
- GI50 [11]: > 100 µM (inactive)
- GI50 [12]: > 100 µM (inactive)
- GI50 [14]: 96.4 µM (inactive)
- GI50 [15]: 75.5 µM (inactive)
- GI50 [16]: 18.8 µM (inactive)
- GI50 [17]: > 100 µM (inactive)
- GI50 [18]: > 100 µM (inactive)
- GI50 [19]: 53.7 µM (inactive)
- GI50 [20]: > 100 µM (inactive)
- GI50 [21]: > 100 µM (inactive)
- GI50 [49]: > 100 µM (inactive)
- GI50 [22]: > 100 µM (inactive)
- GI50 [24]: > 100 µM (inactive)
- GI50 [50]: 76.7 µM (inactive)
- GI50 [25]: > 100 µM (inactive)
- GI50 [26]: > 100 µM (inactive)
- GI50 [27]: > 100 µM (inactive)
- GI50 [28]: > 100 µM (inactive)
- GI50 [51]: 30.8 µM (inactive)
- GI50 [29]: > 100 µM (inactive)
- GI50 [30]: > 100 µM (inactive)
- GI50 [31]: > 100 µM (inactive)
- GI50 [32]: > 100 µM (inactive)
- GI50 [33]: > 100 µM (inactive)
- GI50 [34]: > 100 µM (inactive)
- GI50 [35]: > 100 µM (inactive)
- GI50 [36]: > 100 µM (inactive)
- GI50 [37]: > 100 µM (inactive)
- GI50 [52]: > 100 µM (inactive)
- GI50 [38]: > 100 µM (inactive)
- GI50 [39]: > 100 µM (inactive)
- GI50 [53]: > 100 µM (inactive)
- GI50 [40]: > 100 µM (inactive)
- GI50 [41]: 61.5 µM (inactive)
- GI50 [42]: > 100 µM (inactive)
- GI50 [43]: > 100 µM (inactive)
- GI50 [54]: 22.1 µM (inactive)
- GI50 [44]: > 100 µM (inactive)
- GI50 [46]: > 100 µM (inactive)
- GI50 [48]: > 100 µM (inactive)

Reference: ChEMBL document CHEMBL1201862, “PubChem BioAssay data set” (2004)
